Converted amounts (≈) assume the structure as drawn. Blank lines part the entries; values can stand above or below the compound they belong to.
Tests used:
Rattus norvegicus [1] = test: AUC (0 to 6 hrs) in rat at 10 mg/kg, po; type: ADME, organism-based, Plasma; design: time < 6 hr, dose 10 mg/kg, route oral; settings: in vivo
Caco-2 = test: Apparent permeability of the compound in human Caco2 cells; type: ADME, cell-based
[2] = Intrinsic clearance in rat hepatocytes assessed per 10^6 cells at 1 uM up to 180 mins; type: ADME, cell-based, Hepatocyte; settings: read-out: CLH
[3] = Intrinsic clearance in human hepatocytes assessed per 10^6 cells at 1 uM up to 180 mins; type: ADME, cell-based, Hepatocyte; settings: read-out: CLH
Rattus norvegicus [4] = test: Oral bioavailability in Sprague-Dawley rat at 3 mg/kg; type: ADME, organism-based; settings: in vivo
Rattus norvegicus [5] = test: Terminal half life in Sprague-Dawley rat at 3 mg/kg, iv; type: ADME, organism-based; design: dose 3 mg/kg, route intravenous; settings: in vivo
Nucleic Acid = test: Ratio of drug level in brain to plasma in Sprague-Dawley rat at 3 mg/kg, po after 3 hrs; type: ADME, organism-based; design: dose 3 mg/kg, route oral
[6] = Solubility of the compound at pH 7.4; type: physicochemical; settings: buffer
[7] = Dissociation constant, pKa of the compound; type: physicochemical
[8] = Lipophilicity, log D of the compound; type: physicochemical; settings: octanol/water

- AUC (Rattus norvegicus [1]): < 1 µM·h
SMILES: COc1cccc(-c2cccc([C@]3(C)CC(=O)N(C)C(=N)N3)c2)c1

- AUC (Rattus norvegicus [1]): 8.6 µM·h
SMILES: CN1C(=N)N[C@](C)(c2cccc(-c3cccc(C#N)c3)c2)CC1=O

- AUC (Rattus norvegicus [1]): < 1 µM·h
SMILES: CN1C(=N)N[C@](C)(c2cccc(-c3cccnc3)c2)CC1=O

- Papp (Caco-2): 153 nm/s
- hepatocyte CLint at 1 µM [2]: 4.9 µL/min/1e6 cells
- hepatocyte CLint at 1 µM [3]: 2.7 µL/min/1e6 cells
- F (Rattus norvegicus [4]): 69%
- beta t1/2 (Rattus norvegicus [5]): 2.8 h
- BPR (Nucleic Acid): 3
- solubility [6]: 200 µM (≈ 74.6 µg/mL)
- pKa [7]: 7.5
- logD [8]: 1.8
SMILES: CC#Cc1cncc(-c2cc(Cl)c([C@]3(C)CC(=O)N(C)C(=N)N3)s2)c1
